pIC50: −log10 of the molar value. The source made the active and inactive calls.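 The calls were made as follows: active = cytotoxic to HEK293 cells with IC50 at or below 10 µM; inactive = IC50 above 10 µM.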
System: HEK293 viability, CellTiter-Glo ATP luminescence
Experiment: HEK293 cell cytotoxicity, late-stage follow-up, cytotoxicity control for SRC3 inhibitor project, luminescence, dose response (AID 651779)

SMILES: O=C(CCl)N1N=C(c2ccco2)CC1c1ccco1 (stereo unspecified)
- pIC50: 5.24

SMILES: Cc1ccc(/C=C2\SC(=S)N(CCCC(=O)NC3CCCC3)C2=O)cc1
- IC50: > 35.9 µM (inactive)

SMILES: NS(=O)(=O)c1ccc(Nc2nc(-c3cccnc3)cs2)cc1
- IC50: > 35.9 µM (inactive)

SMILES: Cc1cccc(NC(=O)c2cc(Cl)ccc2[N+](=O)[O-])c1
- IC50: > 35.9 µM (inactive)

SMILES: Cc1ccc(OCC(=O)c2cc(C)n(Cc3cccs3)c2C)c([N+](=O)[O-])n1
- IC50: > 35.9 µM (inactive)

SMILES: O=C(CCl)N1N=C(c2ccco2)CC1c1cccs1 (stereo unspecified)
- pIC50: 5.54

SMILES: Cc1ccc(N=c2c([N+](=O)[O-])nn(-c3ccc4c(c3)OCCO4)n2O)c(Cl)c1
- IC50: > 35.9 µM (inactive)

SMILES: NC(=S)NN=C1CCSc2ccc(Cl)cc21
- IC50: 31.4 µM (inactive)

SMILES: CCOC(=O)C(=CNc1ccc(NC2=NCC(C)S2)cc1)C(=O)OCC (stereo unspecified)
- IC50: > 35.9 µM (inactive)

SMILES: O=[N+]([O-])c1cccc2c1ccc1ncccc12
- IC50: > 35.9 µM (inactive)

SMILES: O=C(O)CN1C(=O)/C(=C\c2ccccc2OCc2ccc(Cl)cc2Cl)SC1=S
- IC50: > 35.9 µM (inactive)

SMILES: Cc1c(/C(O)=C2/C(=O)C(=O)N(Cc3cccnc3)C2c2ccccn2)cnn1-c1ccccc1 (stereo unspecified)
- IC50: > 35.9 µM (inactive)

SMILES: Cc1ccc(N=c2c([N+](=O)[O-])nn(-c3ccc4c(c3)OCCO4)n2O)cc1F
- IC50: > 35.9 µM (inactive)

SMILES: COc1cc2c(cc1OC)C(NC(=O)C(F)(F)F)CNC2=O (stereo unspecified)
- pIC50: 5.01

SMILES: Cc1cc(/C=C2\Cc3ccccc3C2=O)c(C)n1-c1ccccc1
- IC50: > 35.9 µM (inactive)

SMILES: CC(C)n1c(SCC(=O)Nc2nc3c(s2)CCCC3)nc2c1c(=O)n(C)c(=O)n2C
- IC50: 33.6 µM (inactive)

SMILES: COc1cc(N=c2c([N+](=O)[O-])nn(-c3ccc4c(c3)OCCO4)n2O)cc(OC)c1
- IC50: 25.6 µM (inactive)

SMILES: CN(C)c1ccc(CNC(=O)CCNS(=O)(=O)c2cc(Br)cnc2N)cc1
- IC50: > 35.9 µM (inactive)

SMILES: COc1ccc(/C=C2/SC(=S)N(CCC(=O)O)C2=O)cc1
- IC50: > 35.9 µM (inactive)

SMILES: O=C(Nc1cccnc1)c1ccc(C(=O)Nc2cccnc2)cc1
- IC50: > 35.9 µM (inactive)

SMILES: CC(=O)N1CCN(c2ncnc3ccccc23)CC1
- IC50: > 35.9 µM (inactive)

SMILES: S=C(c1ccc(-c2ccccc2)cc1)N1CCOCC1
- IC50: > 35.9 µM (inactive)

SMILES: CCCCC(=O)Nc1cccn2ncnc12
- IC50: > 35.9 µM (inactive)

SMILES: COc1cc(C2c3cc4c(cc3C(OC3OC5COC(c6cccs6)OC5C(O)C3O)C3COC(=O)C23)OCO4)cc(OC)c1O (stereo unspecified)
- IC50: 24 µM (inactive)

SMILES: O=[N+]([O-])c1nn(-c2ccc3c(c2)OCCO3)n(O)c1=Nc1ccccc1
- IC50: > 35.9 µM (inactive)

SMILES: Cc1ccc(OCC(=O)c2cc(C)n(-c3ccccc3)c2C)c([N+](=O)[O-])n1
- IC50: > 35.9 µM (inactive)

SMILES: Cc1nn(CC(=O)N2CCN(c3cccc(C(F)(F)F)c3)CC2)c(=O)c2cccn12
- IC50: > 35.9 µM (inactive)

SMILES: CCOc1ccc(/C=C2\SC(=S)N(CCCC(=O)NCCCN3CCOCC3)C2=O)cc1
- IC50: > 35.9 µM (inactive)

SMILES: CC(=O)/C(N=Nc1ccc2c(c1)OCCO2)=C(/C)O
- IC50: > 35.9 µM (inactive)

SMILES: Cc1ccc(/C=C2/SC(=S)N(CCCC(=O)Nc3ccc(O)cc3)C2=O)cc1
- IC50: > 35.9 µM (inactive)

SMILES: CC(C)N(c1ccccc1)c1ccc(NC(=O)CCl)cc1
- pIC50: 6.36

SMILES: c1ccc(-c2nnc(-c3ccccn3)nc2NC2CCCCC2)cc1
- IC50: > 35.9 µM (inactive)

SMILES: O=C(Nc1nc(-c2ccccn2)cs1)c1cccc(S(=O)(=O)N2CCOCC2)c1
- IC50: > 35.9 µM (inactive)

SMILES: COC(=O)c1c(C)n(-c2ccc(OC)cc2)c2ccc(O)cc12
- IC50: > 35.9 µM (inactive)

SMILES: O=C1CCC2S/C(=C/Nc3ccc(C(F)(F)F)cc3)C(=O)N12 (stereo unspecified)
- IC50: > 35.9 µM (inactive)

SMILES: CCc1ccc(N=c2c([N+](=O)[O-])nn(-c3ccc4c(c3)OCCO4)n2O)cc1
- IC50: > 35.9 µM (inactive)

SMILES: Cc1cc(N=c2c([N+](=O)[O-])nn(-c3ccc4c(c3)OCCO4)n2O)ccc1Br
- IC50: > 35.9 µM (inactive)

SMILES: CCc1ccc(/C=C2\SC(=S)N(CCCC(=O)NCCCN3CCOCC3)C2=O)cc1
- IC50: 17.9 µM (inactive)

SMILES: Cc1c(Cl)cccc1N=c1c([N+](=O)[O-])nn(-c2ccc3c(c2)OCCO3)n1O
- IC50: > 35.9 µM (inactive)

SMILES: O=[N+]([O-])c1nn(-c2ccc3c(c2)OCCO3)n(O)c1=Nc1ccc(Cl)cc1
- IC50: > 35.9 µM (inactive)

SMILES: O=C(COC(=O)c1ccc[nH]c1=O)Nc1ccc(N2CCCCC2)cc1
- IC50: > 35.9 µM (inactive)

SMILES: S=C(Nc1ccccc1)Nc1ccc(OCc2ccc(Cl)cc2Cl)cc1
- IC50: > 35.9 µM (inactive)

SMILES: O=C(CCCc1nc(-c2ccccc2Cl)no1)NC1CCCC1
- IC50: > 35.9 µM (inactive)

SMILES: Cc1cc(C)cc(N=c2c([N+](=O)[O-])nn(-c3ccc4c(c3)OCCO4)n2O)c1
- IC50: > 35.9 µM (inactive)

SMILES: NC(=O)c1sc2nc3c(c(-c4ccco4)c2c1N)CCC3
- IC50: > 35.9 µM (inactive)

SMILES: O=C(CCl)NC(Cc1ccccc1)c1ccccc1 (stereo unspecified)
- IC50: 22.3 µM (inactive)

SMILES: Cn1nc(C(F)(F)F)c(C#N)c1N1CCN(c2ccc(F)cc2)CC1
- IC50: 28.3 µM (inactive)

SMILES: O=C(Nc1nc2ccccc2s1)C1c2ccccc2Oc2ccccc21
- IC50: > 35.9 µM (inactive)

SMILES: Cc1c(CC(=O)NCCCC(=O)O)c(=O)oc2cc3c(cc12)CCC(C)(C)O3
- IC50: > 35.9 µM (inactive)

SMILES: O=C(NC(NC(=S)N1CCOCC1)C(Cl)(Cl)Cl)c1ccc(Cl)cc1 (stereo unspecified)
- IC50: > 35.9 µM (inactive)

SMILES: CCC(=O)N1CCN(c2ccnc3cc(Cl)ccc23)CC1
- IC50: > 35.9 µM (inactive)

— PubChem BioAssay AID651779 (The Scripps Research Institute Molecular Screening Center, 2012)
